This is an account of results in patent US20100076006A1, “Topiramate Plus Naltrexone for the Treatment of Addictive Disorders” (UNIVERSITY OF VIRGINIA PATENT FOUNDATION, priority 2007, published 2010).

One test has as its system rhesus monkeys. Nature of the test: Naltrexone's effects on alcohol drinking in non-human primates, fixed ratio schedule of reinforcement. It counts as in vivo. As to conditions: three non food deprived rhesus monkeys, 3 hour sessions, naltrexone 0.1, 0.3, 1.0, 3.0 g/kg, water concurrently available. As for the experimental part:
FIG. 3 graphically illustrates the effects of Naltrexone on alcohol consumption in non-human primates (rhesus monkeys). Naltrexone was administered at 0.1 (∘), 0.3 ([…]), 1.0 (□) or 3.0 (▪) […]. The ordinate represents cumulative deliveries as percent change from baseline. The abscissa represents time in 10 minute blocks.
This study was principally conducted as a collaboration with Richard Meisch and Alan Boyle. […] During these 3 hour sessions, both water and alcohol were concurrently available.

The subject of a further test is alcoholism treatment. The conditions noted are these: medication alone; cited from earlier work.
Test [1] deals with alcohol-preferring (P) rats. Kind of test: Combined topiramate and naltrexone on alcohol consumption in animal model. The conditions noted are these: 8 rats. It counts as in vivo. As to the method: FIG. 8 graphically illustrates the combined effect of topiramate and naltrexone on alcohol consumption in alcohol-preferring (P) rats. Rats received either vehicle, topiramate at 5 mg/kg, topiramate at 10 mg/kg, naltrexone at 1/mg/kg and topiramate at 5 mg/kg, naltrexone at 1/mg/kg and topiramate at 10 mg/kg, or naltrexone at 1 mg/kg. Each data point represents the mean (±SE) of 8 rats as a change from baseline.
No significant differences were observed following vehicle injection. Data are plotted as change from baseline consumption, and each data point represents a mean (±SE) of 8 rats.

For the next test, the system named is EOA and LOA alcoholics. As to conditions: ondansetron 1, 4, 16 μg/kg twice daily (particularly 4 μg/kg), compared with LOA; cited from earlier work.
The subject of another test is alcohol dependence. As to conditions: topiramate up to 300 mg per day, 12 weeks, vs. placebo; cited from earlier work.

Structures can show the parent of a compound that is named as a salt.

Turning to `O=C1CC[C@@]2(O)[C@H]3Cc4ccc(O)c5c4[C@@]2(CCN3CC2CC2)[C@H]1O5` [naltrexone, 17-(Cyclopropylmethyl)-4,5a-epoxy-3,14-dihydroxymorphinan-6-one hydrochloride], the “alcohol consumption (8% w/v)” value in the test on rhesus monkeys is “dose-dependent decreases”. Further, in the test on alcoholism treatment, the typical effect sizes is 0.2±0.5. The “alcohol consumption, change from baseline” value in test [1] (naltrexone alone, 1 mg/kg intraperitoneally) is “did not affect alcohol consumption”.

For `Cc1nccn1CC1CCc2c(c3ccccc3n2C)C1=O` (stereo not drawn) [ondansetron, 9-methyl-3-[(2-methyl-1H-imidazol-1-yl)methyl]-1,2,3,9-tetrahydrocarbazol-4-one], in the test with alcoholism treatment, the typical effect sizes is on record as 0.2±0.5. In addition, the drinking entry in the test with EOA and LOA alcoholics is “significant reductions”.

For `CC1(C)O[C@@H]2[C@@H](CO[C@@]3(COS(N)(=O)=O)OC(C)(C)O[C@@H]23)O1` [topiramate, 2,3:4,5-Bis-O-(1-methylethylidene)-beta-D-fructopyranose sulfamate], in the test with alcohol dependence, the craving result is “significantly less”; the days of abstinence entry is “significantly more”; the “drinks per day, drinking days, and drinks per drinking day” value is listed as “significantly fewer”. Also, the “alcohol consumption, change from baseline” value in test [1] (topiramate alone, 10 mg/kg intraperitoneally, effect not yet significant) is listed as “only modestly decreased”.
